Test results as given in patent publication US8835403B2, “Algin oligosaccharides and the derivatives thereof as well as the manufacture and the use of the same” (priority 2004, dated 2014).

Assays:
[1] = test system: AD mice induced by Aβ1-40; assay: Morris water maze test of AD mice induced by Aβ1-40; format: in vivo; conditions: for Escape latency (s) 1st day: 1st day of test; for Escape latency (s) 2nd day: 2nd day of test; for Escape latency (s) 3rd day: 3rd day of test; for Latency bias(%): probe trial, 4th day, within 60 s
Protocol: Male Balb/c mice (18-22 g, purchased from Laboratory Centre of Shandong University) are weighed and randomly assigned to six groups as follows: a control group, a model group, a low-concentration (15 mg/kg) 6-mer-treated group, a middle-concentration (30 mg/kg) 6-mer-treated group, a high-concentration (60 mg/kg) 6-mer-treated group, and a Huperzine A-treated (HBY, with a concentration of 0.2 mg/kg) group. The mice were oral administered with corresponding drugs on day 3 after grouping. The drugs were administered once a day consecutively with a dosage of 0.5 ml/20 g until the experiment is completed. The mice of control and model groups were simultaneously administered with an equivalent amount of normal saline.
On the 8th day after drug administration, mice are injected with aged Aβ1-40 except the vehicle group as the method of reference (Jhoo J H et al., β-amyloid (1-42)-induced learning and memory deficits in mice: involvement of oxidative burdens in the hippocampus and cerebral cortex. Behavioural Brain Research (2004) 155: 185-196) to induce the AD model. Aged Aβ1-40 solution is injected into the right cerebral ventricle. […] However, on the 1st day of test, this increased escape latency is shortened in all drug-treated groups except the group treated with 15 mg/kg of 6-mer. And the escape latency of 60 mg/kg 6-mer-treated group has statistical significance compared with that of the model group (P<0.05). On the 2nd and 3rd day of test, the escape latency of all drug-treated groups are shortened, wherein that of 60 mg/kg 6-mer-treated group and HBY-treated group have statistical significance compared with that of the model group (P<0.05).
On the 4th day of Morris water maze test, the original plate is removed and the percentage of time of mice staying at the phase of original plate within 60 s is recorded.

[2] = test system: GSH-PX; assay: GSH-PX activity in cerebral cortex and hippocampus of Aβ1-40-induced AD mice; format: in vivo
Protocol: Following the behavioral test, rats are decapitated. Cerebral cortex and hippocampus are dissected on ice immediately, and stored at −80° C. after quick freezing in liquid nitrogen for 1 hour. MDA, SOD, GSH-PX, Na^+, K^+-ATPase, AchE and CHAT activities in the brain regions are determined using the respective kits. The homogenates of cerebral cortex and hippocampus are prepared with saline with a final concentration of 10% and 5%. The supernatant were obtained after centrifuging at 3600 rpm to test MDA, CuZn-SOD, GSH-PX, Na^+K^+-ATPase, AchE, and CHAT activities. The activity of ChAT is determined with isotope-labeled method. The other indexes and amount of total proteins are tested with the respective kits supplied by Nanjing Jiancheng Bioengineering Institute.
The GSH-PX activity in cerebral cortex and hippocampus is decreased after usage of Aβ with significant difference to the control group in hippocampus (p<0.05).

[3] = test system: primary cerebral cortex neurons of rat; assay: Protection of primary neurons impaired by aged Aβ25-35 (MTT); format: cell-based; conditions: 30 μM aged Aβ25-35 24 h, Aβ alone 54.5±8.9%
Protocol: The primary cerebral cortex neurons of rat are cultured as the method of reference (Banker G A, et al., Rat hippocampal neurons in dispersed cell culture. Brain Res, 1977, 126:397-425). The cells cultured for 1 week are used in this experiment. That is to say, on the 8th day the cells are pretreated with a series of concentrations of 6-mer (final concentration of 0, 10, 50, 100 μg/ml) for 24 h, followed by the addition of aged Aβ25-35 (Firstly resolved in distilled water with a concentration of 1 mg/ml, then stayed at 37° C. for 7 days to get aged Aβ25-35 and stored at −20° C. for use) with a final concentration of 30 μM. After 24 h at 37° C., 10 μl of MTT with a concentration of 5 mg/ml is added. After 4 h at 37° C., the supernatant is removed and 150 μl of DMSO is added. Then the absorbance at 570 nm (630 nm as reference) is recorded with an ELISA reader (Rainbow, TECAN, Austria).

[4] = target: T1, Aβ1-40 (Homo sapiens, UniProt P05067); assay: Fibril formation of Aβ1-40 studied with TEM; format: biochemical
T1 construct: Fresh Aβ1-40 is incubated alone or with 6-mer

[5] = target: Aβ1-40 fibril (Homo sapiens, UniProt P05067); assay: Destability of preformed Aβ1-40 fibril (TEM); format: biochemical; conditions: Aβ1-40 aged 7 d, then 6-mer for additional 3 days (FIG. 10C)
Protocol: 1 mg/ml of distilled water-resolved Aβ1-40 is aged at 37° C. for 7d, after which it is exposed to 6-mer for 3 days.

[6] = target: T1, Aβ1-40; assay: Conformation of Aβ1-40 by CD spectra; format: biochemical; conditions: 6-mer 100 μg/ml, Aβ1-40 250 μg/ml, 37° C., 12 h (FIG. 11C)
Protocol: CD spectra (J-[…], JASCO, Japan) of monomeric Aβ1-40 (250 μg/ml in TBS (100 mM Tris, 50 mM NaCl, pH7.4)) incubated at 37° C. for 12 h is mainly characterized by β-sheet secondary structure (FIG. 11A).

[7] = target: Aβ (Homo sapiens, UniProt P05067); assay: Binding site of 6-mer on Aβ (further studies)
[8] = test system: human pancreatic beta-cells cell line NIT; assay: Protection of pancreatic beta-cell line NIT impaired by amylin (MTT); format: cell-based; conditions: 6-mer 10, 50, 100 μg/ml 24 h pretreatment, 30 μM aged amylin 48 h (FIG. 12)
Protocol: The human pancreatic beta-cells cell line NIT is cultured with DMEM medium containing 10% FBS. The cells are incubateded into 96-well plates in density of 1×10^4 cells/well. The day after plating, they are pretreated with varying concentrations of 6-mer (final concentration of 0, 10, 50, 100 μg/ml) for 24 h, followed by the addition of aged amylin with a final concentration of 30 μM. After 48 h at 37° C., the survival of the cells is measured by MTT method.

T1 sequence (P05067 672-711 limits assumed): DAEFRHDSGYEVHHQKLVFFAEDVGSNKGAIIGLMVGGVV
Sequence of Aβ1-40 fibril (P05067 672-711 limits assumed): as above

SMILES: O=C(O)C1OC(OC2C(C(=O)O)OC(OC3C(C(=O)O)OC(OC4C(C(=O)O)OC(OC5C(C(=O)O)OC(OC6C(C(=O)O)OC(O)C(O)C6O)C(O)C5O)C(O)C4O)C(O)C3O)C(O)C2O)C(O)C(O)C1O (stereo not drawn) [6-mer, mannuronic hexasaccharide]
- Escape latency (s) 1st day ([1]; 6-mer 15 mg/kg oral once a day): 90.07 ± 10.71 s
- Escape latency (s) 2nd day ([1]; 6-mer 15 mg/kg oral once a day): 83.29 ± 9.53 s
- Escape latency (s) 3rd day ([1]; 6-mer 15 mg/kg oral once a day): 72.83 ± 12.50 s
- Escape latency (s) 1st day ([1]; 6-mer 30 mg/kg oral once a day): 77.71 ± 8.69 s
- Escape latency (s) 2nd day ([1]; 6-mer 30 mg/kg oral once a day): 71.69 ± 10.11 s
- Escape latency (s) 3rd day ([1]; 6-mer 30 mg/kg oral once a day): 68.45 ± 14.46 s
- Escape latency (s) 1st day ([1]; 6-mer 60 mg/kg oral once a day): 56.92 ± 9.92 s
- Escape latency (s) 2nd day ([1]; 6-mer 60 mg/kg oral once a day): 63.57 ± 10.54 s
- Escape latency (s) 3rd day ([1]; 6-mer 60 mg/kg oral once a day): 62.50 ± 13.10 s
- Latency bias(%) ([1]; 15 mg/kg): 19.67 ± 5.15%
- Latency bias(%) ([1]; 30 mg/kg): 22.99 ± 5.79%
- Latency bias(%) ([1]; 60 mg/kg): 28.44 ± 6.08 %
- GSH-PX (U/mg prot.) cerebral cortex ([2]; 15 mg/kg): 8.53 ± 0.86 U/mg prot.
- GSH-PX (U/mg prot.) cerebral cortex ([2]; 30 mg/kg): 7.12 ± 1.10 U/mg prot.
- GSH-PX (U/mg prot.) cerebral cortex ([2]; 60 mg/kg): 10.75 ± 1.80 U/mg prot.
- GSH-PX (U/mg prot.) hippocampus ([2]; 15 mg/kg): 4.13 ± 0.58 U/mg prot.
- GSH-PX (U/mg prot.) hippocampus ([2]; 30 mg/kg): 4.25 ± 0.54 U/mg prot.
- GSH-PX (U/mg prot.) hippocampus ([2]; 60 mg/kg): 4.81 ± 0.95 U/mg prot.
- survived rate ([3]; 10 μg/ml 6-mer 24 h pretreatment): 72.0±11.2%
- survived rate ([3]; 50 μg/ml 6-mer 24 h pretreatment): 77.1±8.1%
- survived rate ([3]; 100 μg/ml 6-mer 24 h pretreatment): 82.3±11.6%
- fibril formation of Aβ1-40 (TEM) ([4]; incubation 24 h and 48 h (FIG. 9)): significantly inhibit the fibril formation of Aβ1-40
- fibril formation of Aβ1-40 facilitated by heparin (TEM) ([4]; with heparin, 24 h and 48 h (FIG. 9)): significant inhibitory effect
- effect on preformed Aβ1-40 fibers (TEM) [5]: turned into small irregular short fibers
- β-sheet formation of monomeric Aβ1-40 (CD) [6]: prevents the β-sheet formation
- binding site on Aβ25-35 [7]: Ser26˜Lys28
- survived cells impaired by amylin [8]: increase the survived cells impaired by amylin in a dose-dependent manner
